# Reference: patent publication US11834466B2, “Benzoxaborole compounds and formulations thereof” (5Metis, Inc., priority 2017, dated 2023)
# What was measured:
# Assay type in all cases: in vivo
# [1] = tested on: wheat/SNB (Parastangaspora nodorum); assay: Greenhouse biological efficacy on wheat/SNB; details: BAG8 0.25 lb/acre at 20 gal/acre, inoculum 24 hours post spray, Example 26, Table 16, untreated control 6.750
# Description: (§1) The BAG8 SC formulations described in Example 10 (BAG8 20% SC) and Example 12 (BAG8 40% SC) and selected BAG8 SC-tank mix formulations described in Example 23 were tested under greenhouse conditions. Data was obtained for soybean/white mold (Sclerotinia sclerotiorum), wheat/SNB (Parastangaspora nodorum), and cucubit/downy mildew. For each experiment, the BAG8 was applied at a rate of 0.25 lb/acre and at a spray rate of 20 gal/acre. Various BAG8 EC formulations, the BAG8 WP formulation described in Example 18, and selected BAG8 SC-tank mix formulations described in Example 23 were tested under greenhouse conditions. Data was obtained for soybean/white mold (Sclerotinia sclerotiorum), wheat/SNB (Parastangaspora nodorum), and cucurbit/downy mildew. For each experiment, the BAG8 was applied at a rate of 0.25 lb/acre at a spray rate of 20 gal/acre (40 mL of spray solution prepared). All inoculum was applied 24 hours post BAG8 spray. Unformulated BAG8 was applied to the plants by dissolving BAG8 in a 30% acetone-70% water solution.
# [2] = tested on: soybean/white mold (Sclerotinia sclerotiorum); assay: Greenhouse biological efficacy on soybean/white mold; details: BAG8 0.25 lb/acre at 20 gal/acre, inoculum 24 hours post spray, Example 29, Table 19, untreated control 7.333
# Description: as §1
# [3] = tested on: cucurbit/downy mildew; assay: Greenhouse biological efficacy on cucurbit/downy mildew; details: BAG8 0.25 lb/acre at 20 gal/acre, inoculum 24 hours post spray
# Description: as §1
compound,measurement,setting,value
"OB1OCc2cc(Cl)ccc21 [BAG8, 5-chlorobenzo[c][1,2]oxaborol-1(3H)-ol]",Mean Disease Severity,[1],5.750
same,Mean Disease Severity,[2],5.333
same,Mean Disease Severity,"[3]; Cucumber/Downy Mildew, Example 29, Table 20, untreated control 7.417",5.833
same,Mean Disease Severity,"[3]; Curcurbit/Downy Mildew, Example 27, Table 17, untreated control 8.364",2.000
same,Mean Disease Severity,"[3]; Curcurbit/Downy Mildew, Example 28, Table 18, untreated control 6.667",5.833
